Source: publication PMC11706957 (Scientific Reports, 2025)
Several values for one entry are separate records, joined by “and”; a condition that tells them apart may be missing. Equal values may be shown once.

Legend:
DYRK1B [1] = molecular target: T1, DYRK1B (Homo sapiens, UniProt Q9Y463); design: method as in Dirice et al. 2016; details: reference activity value, ref Dirice et al. 2016; cited from earlier work
T1 construct: purchased ThermoFisher Scientific

DYRK1B [2] = molecular target: T1, DYRK1B; experiment: Lantha (TR-FRET) kinase binding assay
Procedure: Kinase binding activity was performed as described in[23]. Briefly, a 12-points dilution series of the compounds was prepared in DMSO and further diluted 1:33 in assay buffer A (50 mM HEPES (Sigma-Aldrich) pH 7.5, 10 mM MgCl2 (Sigma-Aldrich) 1 mM EGTA (Sigma-Aldrich) and 0.01% BRIJ-35 (ThermoFisher Scientific, Waltham, MA, USA). The GST tagged kinases, antibodies and tracer were purchased from ThermoFisher Scientific. DYRK1A and DYRK1B were each mixed with rabbit anti GST Europium tagged antibody in assay buffer A at concentrations of 15 nM kinase and 6 nM antibodies. Tracer 236 was diluted to 90 nM (DYRK1A) or 30 nM (DYRK1B) in assay buffer A. Finally, the kinase-antibody solution, compound solution and tracer solution were mixed together 1:1:1 (5µL each) in white, non-binding, round bottom 384 well microplates (Corning Inc, Kennebunk, ME, USA) mixed at 1000 rpm for 1 min and incubated in the dark at RT in humid atmosphere for 1 h. Fluorescence measurements were taken using a EnVision 2104 Multilabel reader (PerkinElmer, Shelton, CT, USA), excitation wavelength was set to 340 nm and emission was read at both 615 nm (8.5 nm bandwidth) and 665 nm (7.5 nm bandwidth) over 200ms with a 100ms delay between excitation and emission measurements. Emission ratio signals (EM) were calculated as the ratio between the 665 nm signal and the 615 nm signal. […]

48 cell lines = tested on: 48 cell lines; design: method as in PMID 31647655; details: cited from earlier work
RIN-M5F cells [3] = experiment: Caspase 3/7 activity (Caspase-Glo); assay type: cell-based, rat
Procedure: (§1) Rat beta cells RIN-M5F (purchased from ATCC, Manassas, VA, USA, product code ATCC-CRL-11605, passage number below 40 for all experiments presented in this manuscript) were cultured in RPMI-1640 (cat# R5886, Sigma-Aldrich, Saint Louis, MO, USA) supplemented with 10% FBS (Biowest, Nauillé, France), 2 mM L-glutamine (Biowest), 1 mM sodium pyruvate (Merck, Darmstadt, Germany) and 1x Penicillin-Streptomycin (Sigma-Aldrich) according to manufacturer’s instructions. Cells were seeded 3 days before the start of each experiment to allow full attachment. In experiments analysing the effects of cytokines, cells were treated with 20 ng/ml human IL-1β and 20 ng/ml rat IFNγ (Peprotech, Rocky Hill, NJ, USA) for a given time as indicated. Mycoplasma was tested as negative using MycoAlert® Mycoplasma Kit (Lonza, Basel, Switzerland).
RIN-M5F cells were cultured in 96-well plates, 2 × 10^4 cells/well. […] Caspase 3/7 activity was measured by Caspase-Glo (Promega) according to the manufacturer’s instructions. Each experiment was performed in triplicates.

RIN-M5F cells [4] = experiment: EdU incorporation (flow cytometry); assay type: cell-based, rat; details: for Average increase of EdU + labelling: versus untreated
Procedure: as §1
RIN-M5F cells were seeded into 6 well plates, 6 × 10^5 cells per well. […] Subsequently, the cells were stained with 10 µM Click-iT EdU (Invitrogen, Waltham, MA, USA) for 2 h, and analysed by flow cytometry (CytoFLEX, Beckman Coulter, Brea, CA, USA) according to the manufacturer’s instructions. EdU incorporation was analysed using the CytExpert software.

DYRK3 = molecular target: T2, DYRK3 (Homo sapiens, UniProt O43781); experiment: Kinase activity assay (33P-ATP radioactive filter binding); assay type: biochemical; details: duplicate 10-point concentration curve, mean ± SD
T2 sequence (O43781 1-588): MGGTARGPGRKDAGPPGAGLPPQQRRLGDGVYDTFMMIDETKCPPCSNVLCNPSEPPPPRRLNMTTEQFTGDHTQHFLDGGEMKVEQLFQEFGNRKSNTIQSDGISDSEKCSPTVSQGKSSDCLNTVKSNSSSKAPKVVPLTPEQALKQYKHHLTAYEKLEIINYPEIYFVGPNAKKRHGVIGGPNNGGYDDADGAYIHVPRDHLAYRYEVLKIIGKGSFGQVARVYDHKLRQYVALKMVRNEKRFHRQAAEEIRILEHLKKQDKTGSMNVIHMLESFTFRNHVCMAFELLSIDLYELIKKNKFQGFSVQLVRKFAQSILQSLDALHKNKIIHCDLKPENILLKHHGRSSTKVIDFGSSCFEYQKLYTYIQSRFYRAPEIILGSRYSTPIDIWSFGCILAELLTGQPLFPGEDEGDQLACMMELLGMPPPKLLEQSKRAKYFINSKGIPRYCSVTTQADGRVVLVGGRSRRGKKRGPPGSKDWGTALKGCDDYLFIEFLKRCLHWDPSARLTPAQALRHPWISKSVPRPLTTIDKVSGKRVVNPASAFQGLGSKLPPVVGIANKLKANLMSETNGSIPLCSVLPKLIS
Procedure: (§2) Each kinase was assayed using a duplicate 10-point concentration curve.

DYRK2 = molecular target: T3, DYRK2 (Homo sapiens, UniProt Q92630); experiment: as above; assay type: biochemical; details: duplicate 10-point concentration curve, mean ± SD
T3 sequence (Q92630 1-601): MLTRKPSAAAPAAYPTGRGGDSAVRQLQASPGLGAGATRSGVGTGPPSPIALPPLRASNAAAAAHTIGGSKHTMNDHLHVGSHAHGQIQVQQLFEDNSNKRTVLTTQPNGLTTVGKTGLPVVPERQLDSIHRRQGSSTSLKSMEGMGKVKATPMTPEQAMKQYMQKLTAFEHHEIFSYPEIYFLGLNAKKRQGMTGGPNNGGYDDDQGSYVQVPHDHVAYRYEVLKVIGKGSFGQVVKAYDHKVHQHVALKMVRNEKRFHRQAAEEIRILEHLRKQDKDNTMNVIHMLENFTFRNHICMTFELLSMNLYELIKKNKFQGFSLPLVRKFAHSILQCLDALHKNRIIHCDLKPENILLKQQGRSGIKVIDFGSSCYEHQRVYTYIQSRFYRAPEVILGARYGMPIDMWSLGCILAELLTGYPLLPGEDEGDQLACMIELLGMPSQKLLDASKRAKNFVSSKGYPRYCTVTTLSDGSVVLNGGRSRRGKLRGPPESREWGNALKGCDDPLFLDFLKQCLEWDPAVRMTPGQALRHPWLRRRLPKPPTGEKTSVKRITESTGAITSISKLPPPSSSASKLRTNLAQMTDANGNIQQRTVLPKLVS
Procedure: as §2

[5] = tested on: phospho-dyrk1a/b (Tyr321, Tyr273); experiment: Western blot of phosphorylated DYRK1A/B; assay type: cell-based, rat; details: 48 h, no cytokines
Procedure: (§3) RIN-M5F cells were seeded in 6-well plates, 6 × 10^5 cells/well. […] After centrifugation (16.9 RCF, 15 min at 4 °C) the samples were directly diluted in NuPAGE™ LDS Sample Buffer (4X, Invitrogen) supplemented with NuPAGE™ Sample Reducing Agent (10X, Invitrogen), boiled at 95 °C for 5min and loaded on gel (NuPAGE™ 4–12%, Bis-Tris, Invitrogen). Protein transfer to PVDF membrane was performed by the iBlot™ dry blotting system (Invitrogen) according to manufacturer’s instructions. The membrane was blocked using SuperBlock™ Blocking Buffer (Thermo Fisher Scientific) and subsequently cut in half around 60 kDA, the top half was incubated with primary antibodies for phospho-dyrk1a/b (Tyr321, Tyr273) (1:500, Invitrogen, ref: PA5-64574), while the bottom half was incubated with phospho-p27^kip1 (Ser10) (1:200, Invitrogen, ref:34-6300) over night at 4 °C. After washing, the membrane was incubated with Alexa488-conjugated secondary antibody (1:5000, goat anti-rabbit, Invitrogen) for 2 h and imaged with a PharoxFX imager (Bio-Rad, Hercules, CA, USA). […] Protein quantification was performed with ImageJ (National Institutes of Health, Bethesda MD, USA), using the gel analysis tool to get the integrated pixel intensity for each band.

RIN-M5F cells [6] = experiment: Cell viability (MTS, CellTiter 96 AQueous One) in cytokine-treated cells; assay type: cell-based, rat
Procedure: as §1
RIN-M5F cells were cultured in 96-well plates, 2 × 10^4 cells/well. […] Control wells with RPMI-1640 alone or supplemented with DMSO (Sigma-Aldrich, final concentration 10%) were used to estimate absorbance at 100% or 0% viability, respectively. […] The cells were thereafter incubated for an additional 72 h, and cell viability was measured by CellTiter 96®AQueous One Solution Assay (Promega, Madison, WI, USA) according to the manufacturer’s instructions. Absorbance at 490 nm was measured using a Spark® multimode microplate reader (Tecan, Männedorf, Switzerland). […]

HepG2 cells = experiment: EdU incorporation in HepG2 cells; assay type: cell-based; details: 10 µM BfC versus untreated
Excerpt: Supplementary Figure S2. Redocking of harmine in DYRK1A. The interactions between the compounds and the kinase hinge are identical (red circles) in both calculated and experimental model. […]
compounds are shown as cartoon, with blue for nitrogen atoms, white for hydrogen, red for oxygen, purple for iodine and either orange (experimental) or green (docked) for carbon atoms. The protein active site is shown as a grey surface and important residues are shown as wire, dashed line represent […]
µM). Open bars: EdU negative cells. Closed bars: EdU positive cells. Closed circles: Untreated cells. […]

phospho-p27^kip1 (Ser10) = experiment: Western blot of phosphorylated p27KIP; assay type: cell-based, rat; details: 48 h, no cytokines
Procedure: as §3

RIN-M5F cells [7] = experiment: Cell cycle distribution (PI staining, flow cytometry); assay type: cell-based, rat
Procedure: as §1
RIN-M5F cells were seeded in 6-well plates, 6 × 10^5 cells/well. […] After stimulation, the cells were washed with phosphate buffered saline (PBS) and trypsinated for 5 min at 37 °C, and fixed in ice-cold ethanol (70%) at 4 °C until analysis. The cells were stained by FxCycle™ PI/RNase Staining Solution kit (Invitrogen) according to manufacturer’s instructions and analysed by flow cytometry (CytoFLEX, Beckman Coulter). The percentages of cells in G1, S1 and G2/M was determined using the CytExpert software.

[8] = 20 µM, cells treated with cytokines

T1 sequence (Q9Y463 whole entry): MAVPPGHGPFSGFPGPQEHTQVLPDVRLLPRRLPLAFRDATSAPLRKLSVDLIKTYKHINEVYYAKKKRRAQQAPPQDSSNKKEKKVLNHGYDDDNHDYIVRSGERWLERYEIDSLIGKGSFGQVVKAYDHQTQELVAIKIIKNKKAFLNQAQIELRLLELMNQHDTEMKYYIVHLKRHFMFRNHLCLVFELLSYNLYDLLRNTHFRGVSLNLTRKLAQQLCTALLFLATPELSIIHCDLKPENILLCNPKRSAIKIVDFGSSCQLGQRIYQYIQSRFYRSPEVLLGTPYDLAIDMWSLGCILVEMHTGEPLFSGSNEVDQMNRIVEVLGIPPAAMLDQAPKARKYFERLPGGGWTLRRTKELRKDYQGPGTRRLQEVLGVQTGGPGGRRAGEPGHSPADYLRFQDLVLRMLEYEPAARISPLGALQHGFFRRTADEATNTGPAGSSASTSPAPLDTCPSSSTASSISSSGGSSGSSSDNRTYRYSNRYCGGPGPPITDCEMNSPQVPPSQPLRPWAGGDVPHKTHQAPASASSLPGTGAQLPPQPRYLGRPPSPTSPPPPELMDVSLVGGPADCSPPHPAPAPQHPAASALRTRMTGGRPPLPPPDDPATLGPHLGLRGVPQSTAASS

## Nc1ncnc2c1c(I)cn2[C@@H]1O[C@H](CO)[C@@H](O)[C@H]1O [5IT, reference compound]
DYRK1B [1]
  IC50: 10 nM
DYRK1B [2]; lanthaScreen, 95% confidence interval in bracket
  Kd: 2.4 nM

## COc1cc2c(-c3cnc(-c4ccc[nH]4)o3)c[nH]c2cc1Br [BfC, breitfussin C]
48 cell lines
  Concentration at which cytotoxic to 48 cell lines: ≤ 10 µM
RIN-M5F cells [3]; 10 µM pretreatment 24 h before cytokines, cytokines alone 199%
  Caspase 3/7 activity compared to control: 210 ± 15%
RIN-M5F cells [3]; 10 µM, 48 h, without cytokines
  Caspase 3/7 activity compared to control: 127 ± 2%
RIN-M5F cells [3]; 20 µM pretreatment 24 h before cytokines, cytokines alone 199%
  Caspase 3/7 activity compared to control: 241 ± 20%
RIN-M5F cells [3]; 20 µM, 48 h, without cytokines
  Caspase 3/7 activity compared to control: 186 ± 19%
RIN-M5F cells [4]; 10 µM pretreatment, cytokine treated cells, cytokines alone 7.7 ± 0.8%
  EdU + labelling rate: 8.8 ± 0.8%
RIN-M5F cells [4]; 10 µM, without cytokines
  Average increase of EdU + labelling: 12.5%
RIN-M5F cells [4]; 10 µM, without cytokines, untreated 15.2 ± […]
  EdU + labelling rate: 17.1 ± 0.9%
RIN-M5F cells [4]; 20 µM pretreatment, cytokine treated cells, cytokines alone 7.7 ± 0.8%
  EdU + labelling rate: 11.0 ± 1.1%
RIN-M5F cells [4]; 20 µM, without cytokines
  Average increase of EdU + labelling: 21.1%
RIN-M5F cells [4]; 20 µM, without cytokines, untreated 15.2 ± […]
  EdU + labelling rate: 18.4 ± 1.5%
DYRK3
  IC50: 4400 ± 800 nM
DYRK2
  IC50: 1400 ± 500 nM
[5]; 10 µM
  Decrease of expression of p-DYRK1A/B compared to control: approximately 50%
[5]; 20 µM
  Decrease of expression of p-DYRK1A/B compared to control: ~62%
RIN-M5F cells [6]; concentrations above 10–20 µM (up to 40 µM), with cytokines
  Protective effect against cytokine-induced cell death at higher concentrations: lost
RIN-M5F cells [6]; dose-response 1.25-40 µM with cytokines
  Concentration range of effective protection against cytokine-induced cell death: 10 to 20 µM
HepG2 cells
  EdU incorporation in HepG2 cells: decreased
DYRK1B [2]; TR-FRET, approximate because of compound autofluorescence
  Kd: ~9000 nM and 9000 nM
phospho-p27^kip1 (Ser10); 10 µM
  Decrease of expression of p-p27^KIP compared to control: 23%
phospho-p27^kip1 (Ser10); 20 µM
  Decrease of expression of p-p27^KIP compared to control: 42%
RIN-M5F cells [7]; 10 µM, without cytokines
  Change of cells in G0/G1 phase: significantly decreased
  Change of cells in S and G2/M phase: increased
RIN-M5F cells [7]; 20 µM, 48 h, without cytokines, control 76.9 ± 0.6%
  Number of cells in G0/G1: 66.6 ± 1.3%
RIN-M5F cells [7]; [8]
  Change of cells in S and G2/M phase: increased
  Change of number of cells in G0/G1: significantly decreased
RIN-M5F cells [7]; 20 µM, without cytokines
  Change of cells in S and G2/M phase: increased
